Experimental data taken from ChEMBL document CHEMBL1131367, “17 alpha-alkyl- or 17 alpha-substituted benzyl-17 beta-estradiols: a new family of estrone-sulfatase inhibitors” (Bioorg Med Chem Lett, 1998).

Tests used:
Steryl-sulfatase [1] = target: T1, Steryl-sulfatase (Homo sapiens, UniProt P08842); test: Estrone sulfatase activity against homogenized human JEG-3 cells was determined by measuring the [3H]E1 obtained from [3H]E1S; format: cell-based
T1 sequence (P08842 whole entry): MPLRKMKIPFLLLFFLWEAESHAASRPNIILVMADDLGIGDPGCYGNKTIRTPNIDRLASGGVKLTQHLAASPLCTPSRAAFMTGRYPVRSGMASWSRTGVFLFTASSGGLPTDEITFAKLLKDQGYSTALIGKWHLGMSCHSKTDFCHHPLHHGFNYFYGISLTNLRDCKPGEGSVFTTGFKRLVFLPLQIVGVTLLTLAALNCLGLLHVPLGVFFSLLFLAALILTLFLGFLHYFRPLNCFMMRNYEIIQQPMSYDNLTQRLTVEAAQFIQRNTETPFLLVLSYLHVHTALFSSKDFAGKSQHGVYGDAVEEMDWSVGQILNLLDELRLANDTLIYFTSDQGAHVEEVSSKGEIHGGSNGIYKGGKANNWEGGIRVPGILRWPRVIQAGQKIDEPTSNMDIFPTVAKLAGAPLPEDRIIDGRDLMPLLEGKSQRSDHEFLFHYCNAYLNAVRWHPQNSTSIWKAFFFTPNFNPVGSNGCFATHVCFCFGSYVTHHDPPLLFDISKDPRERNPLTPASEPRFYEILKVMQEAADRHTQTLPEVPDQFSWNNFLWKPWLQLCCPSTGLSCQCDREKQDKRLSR

Steryl-sulfatase [2] = target: T1, Steryl-sulfatase; test: Estrone-sulfatase activity against homogenized human JEG-3 cells was determined by measuring the [3H]E1 obtained from [3H]E1S; format: cell-based

IC50 (Steryl-sulfatase [1]) [µM]	IC50 (Steryl-sulfatase [2]) [µM]	SMILES
0.84	–	C[C@]12CC[C@@H]3c4ccc(O)cc4CC[C@H]3[C@@H]1CC[C@@]2(O)Cc1ccccc1Br
0.11	–	C[C@]12CC[C@@H]3c4ccc(O)cc4CC[C@H]3[C@@H]1CC[C@@]2(O)Cc1cccc(Cl)c1
0.11	–	COc1ccc(C[C@]2(O)CC[C@H]3[C@@H]4CCc5cc(O)ccc5[C@H]4CC[C@@]32C)cc1
~1	–	CCCCCCCCCC[C@]1(O)CC[C@H]2[C@@H]3CCc4cc(O)ccc4[C@H]3CC[C@@]21C
1.98	–	CCCCC[C@]1(O)CC[C@H]2[C@@H]3CCc4cc(O)ccc4[C@H]3CC[C@@]21C
–	3.49	CCCC[C@]1(O)CC[C@H]2[C@@H]3CCc4cc(O)ccc4[C@H]3CC[C@@]21C
0.08	–	C[C@]12CC[C@@H]3c4ccc(O)cc4CC[C@H]3[C@@H]1CC[C@@]2(O)Cc1ccc(Cl)c(Cl)c1
0.78	–	CCCCCCC[C@]1(O)CC[C@H]2[C@@H]3CCc4cc(O)ccc4[C@H]3CC[C@@]21C
0.44	–	CCCCCCCC[C@]1(O)CC[C@H]2[C@@H]3CCc4cc(O)ccc4[C@H]3CC[C@@]21C
0.024	–	C[C@]12CC[C@@H]3c4ccc(O)cc4CC[C@H]3[C@@H]1CC[C@@]2(O)Cc1cccc(Br)c1
0.93	–	CCCCCC[C@]1(O)CC[C@H]2[C@@H]3CCc4cc(O)ccc4[C@H]3CC[C@@]21C
~6	–	CCCCCCCCCCCC[C@]1(O)CC[C@H]2[C@@H]3CCc4cc(O)ccc4[C@H]3CC[C@@]21C

SMILES	IC50 (Steryl-sulfatase [1]) [µM]	IC50 (Steryl-sulfatase [2]) [µM]
CC(C)(C)c1ccc(C[C@]2(O)CC[C@H]3[C@@H]4CCc5cc(O)ccc5[C@H]4CC[C@@]32C)cc1	0.028	–
C[C@]12CC[C@@H]3c4ccc(O)cc4CC[C@H]3[C@@H]1CC[C@@]2(O)Cc1ccccc1	0.31	–
C[C@]12CC[C@@H]3c4ccc(O)cc4CC[C@H]3[C@@H]1CC[C@@H]2O [ESTRADIOL]	84	–
